Results reported in patent US20080131475A1, “Methods of Use of Dual Ppar Agonist Compounds and Drug Delivery Devices Containing Such Compounds” (priority 2005, published 2008).

Key:
[1] = drug release from coated stent pieces in PBS pH 7.4 or PEG/water; type: physicochemical; conditions: 2 cm coated stent pieces, PBS pH 7.4 or PEG 400/water 40/60 v/v, 37° C., solutions changed daily
Description: Four 2 cm pieces of coated stents as described above are placed into 100 mL of phosphate buffer solution (PBS) having a pH of 7.4. Another 4 pieces from each series are placed into 100 mL polyethylene glycol (PEG)/water solution (40/60 v/v, MW of PEG=400). The stent pieces are incubated at 37° C. in a shaker. The buffer and PEG solutions are changed daily and different assays are performed on the solution to determine the released (R)-1-{4-[5-methyl-2-(4-trifluoromethyl-phenyl)-oxazol-4-ylmethoxy]-benzenesulfonyl}-2,3-dihydro-1H-indole-2-carboxylic acid concentrations. Such assays can show a stable release of (R)-1-{4-[5-methyl-2-(4-trifluoromethyl-phenyl)-oxazol-4-ylmethoxy]-benzenesulfonyl}-2,3-dihydro-1H-indole-2-carboxylic acid from coated stents for more than 45 days. By the term “stable-release of (R)-1-{4-[5-methyl-2-(4-trifluoromethyl-phenyl)-oxazol-4-ylmethoxy]-benzenesulfonyl}-2,3-dihydro-1H-indole-2-carboxylic acid” is meant less than 10% of variation of the drug release. Controlled-release techniques used by a person skilled in the art allow an unexpected easy adaptation of the required drug release rate. […]

[2] = system: restenotic lesion and arterial stenosis in stented coronary arteries; test: swine model of restenosis with coronary stents eluting Compound A; type: in vivo; conditions: juvenile swine, poly-n-butyl methacrylate coated stent containing 200 mg Compound A per stent, coronary artery, 7 or 28 days
Description: (§1) The treatment and/or prevention of restenosis in vivo in diabetics and non-diabetics can be evaluated as follows: • 1. The beneficial effects of a compound of the present invention on restenosis are ascertained in a swine model of restenosis. Stainless steel balloon-expandable tubular stents, 18 mm long, are coated with a thin layer of a polymer, i.e., poly-n-butyl methacrylate, containing […] of (R)-1-{4-[5-methyl-2-(4-trifluoromethyl-phenyl)-oxazol-4-ylmethoxy]-benzenesulfonyl}-2,3-dihydro-1H-indole-2-carboxylic acid (Compound A) per stent. Juvenile swine (25-35 kg) undergo placement of bare metal stents which elute Compound A in the left anterior descending, circumflex or right coronary artery. The guiding catheter is used as a reference to obtain a 1.2:1 to 1.4:1 stent-to-artery ratio compared with the baselinevessel diameter. […] At 7 days or 28 days, the animals are euthanized after completion of coronary angiography for quantitative analysis. • Immediately following euthanasia, the hearts are harvested, and the coronary arteries are perfusion-fixed with 10% buffered formalin at 60-80 mm Hg for 30 minutes via the aortic stump. […] Vessel wall expression of proliferating cell nuclear antigen (PCNA) (Santa Cruz Biotechnology), pRb (Pharmingen), monocyte chemotactic protein (MCP)-1 (R&D Systems) or interleukin (IL)-6 (R&D Systems) were evaluated by Western blot analysis. […]

[3] = system: restenotic lesion formation and arterial stenosis in diabetic swine; test: diabetic swine model of restenosis; type: in vivo; conditions: streptozotocin-diabetic juvenile swine, procedure as in non-diabetic stent model
Description: as §1

Cc1oc(-c2ccc(C(F)(F)F)cc2)nc1COc1ccc(S(=O)(=O)N2c3ccccc3C[C@@H]2C(=O)O)cc1 [Compound A, (R)-1-{4-[5-methyl-2-(4-trifluoromethyl-phenyl)-oxazol-4-ylmethoxy]-benzenesulfonyl}-2,3-dihydro-1H-indole-2-carboxylic acid]
duration of stable release from coated stents (less than 10% of variation of the drug release) [1]: more than 45 days | extent of restenotic lesion and arterial stenosis [2]: marked reduction | extent of restenotic lesion formation and arterial stenosis [3]: reduction
